Laboratory results: ChEMBL document CHEMBL1144094, “Phenylethanoid glycosides from Globularia trichosantha” (J Nat Prod, 1999)
The source made the active and inactive calls. The rule behind the calls is not given here.

What follows are compounds tested on Radical scavenging activity (assay: Antioxidant activity assessed as DPPH free radical scavenging activity by TLC autographic assay).
Format: functional
For `C[C@@H]1O[C@@H](O[C@@H]2[C@@H](O)[C@H](OCCc3ccc(O)c(O)c3)O[C@H](CO)[C@H]2OC(=O)/C=C/c2ccc(O)c(O)c2)[C@H](O)[C@H](O)[C@H]1O[C@@H]1OC[C@@H](O)[C@H](O)[C@H]1O`, the Activity was “Active”.
For `C[C@@H]1O[C@@H](O[C@@H]2[C@@H](O)[C@H](OCCc3ccc(O)c(O)c3)O[C@H](CO)[C@H]2OC(=O)/C=C/c2ccc(O)c(O)c2)[C@H](O)[C@H](O)[C@H]1O[C@@H]1O[C@H](CO)[C@@H](O)[C@H](O)[C@H]1O`, the Activity was “Active”.
For `C[C@@H]1O[C@@H](O[C@@H]2[C@H]3O[C@@H](c4ccc(O)c(O)c4)CO[C@@H]3O[C@H](CO)[C@H]2OC(=O)/C=C/c2ccc(O)c(O)c2)[C@H](O)[C@H](O)[C@H]1O`, the Activity was “Active”.
In the case of `C[C@@H]1O[C@@H](O[C@@H]2[C@@H](O)[C@H](OCCc3ccc(O)c(O)c3)O[C@H](CO)[C@H]2OC(=O)/C=C/c2ccc(O)c(O)c2)[C@H](O)[C@H](O)[C@H]1O`, the Activity is reported as “Active”.
In the case of `C[C@@H]1O[C@@H](O[C@@H]2[C@@H](O)[C@H](OCCc3ccc(O)c(O)c3)O[C@H](CO[C@@H]3OC[C@@H](O)[C@H](O)[C@H]3O)[C@H]2OC(=O)/C=C/c2ccc(O)c(O)c2)[C@H](O)[C@H](O)[C@H]1O[C@@H]1OC[C@@H](O)[C@H](O)[C@H]1O`, the Activity is reported as “Active”.
